Measured values reported in ChEMBL document CHEMBL1158928, “Antitumor agents, 118. The isolation and characterization of bruceanic acid A, its methyl ester, and the new bruceanic acids B, C, and D, from Brucea antidysenterica” (1990).
Converted amounts (≈) assume the structure as drawn. The source made the active and inactive calls. No cut-off for these calls is given here.

What was measured:
TE-671 [1] = assay: Cytotoxicity against human TE671 cells; format: functional; conditions: read-out: ED50 (the source's name)
A549 [2] = assay: Cytotoxicity against human A549 cells; format: functional; conditions: read-out: ED50 (the source's name)
KB [3] = assay: Cytotoxicity against human KB cells; format: functional; conditions: read-out: ED50 (the source's name)
HCT-8 [4] = assay: Cytotoxicity against human HCT8 cells; format: functional; conditions: read-out: ED50 (the source's name)
TE-671 [5] = assay: Cytotoxicity against human TE671 cells at 10 ug/ml; format: functional, cell-based
A549 [6] = assay: Cytotoxicity against human A549 cells at 10 ug/ml; format: functional, cell-based
P388 [7] = assay: Cytotoxicity against mouse P388 cells at 10 ug/ml; format: functional, cell-based
HCT-8 [8] = assay: Cytotoxicity against human HCT8 cells at 10 ug/ml; format: functional, cell-based
KB [9] = assay: Cytotoxicity against human KB cells at 10 ug/ml; format: functional, cell-based
P388 [10] = assay: Cytotoxicity against mouse P388 cells; format: functional; conditions: read-out: ED50 (the source's name)

## COC(=O)[C@@]12OC[C@]34[C@H](CC(=O)[C@H](OC(=O)/C=C(\C)C(C)C)[C@@H]13)C[C@@H](C(C)=O)[C@](C)(CC(=O)O)[C@H]4[C@@H](O)[C@@H]2O [BRUCEANIC ACID A]
TE-671 [1]
  EC50: 5.5 µg/mL (≈ 9.99 µM)
A549 [2]
  EC50: 10 µg/mL (≈ 18.2 µM)
KB [3]
  EC50: 4.16 µg/mL (≈ 7.56 µM)
HCT-8 [4]
  EC50: 10 µg/mL (≈ 18.2 µM)

## COC(=O)C[C@]1(C)[C@H]2[C@@H](O)[C@H](O)[C@]3(C(=O)OC)OC[C@@]24[C@H](CC(=O)[C@H](OC(=O)/C=C(\C)C(C)C)[C@@H]34)C[C@H]1C(C)=O
TE-671 [5]
  Activity: inactive
A549 [6]
  Activity: inactive
P388 [7]
  Activity: inactive
HCT-8 [8]
  Activity: inactive
KB [9]
  Activity: inactive

## COC(=O)[C@@]12OC[C@]34[C@H](CC(=O)[C@H](OC(=O)c5ccccc5)[C@@H]13)C[C@@H](C(C)=O)[C@](C)(CC(=O)O)[C@H]4[C@@H](O)[C@@H]2O
TE-671 [5]
  Activity: inactive
A549 [6]
  Activity: inactive
P388 [7]
  Activity: inactive
HCT-8 [8]
  Activity: inactive
KB [9]
  Activity: inactive

## COC(=O)[C@@]12OC[C@]34[C@H](CC(=O)[C@H](OC(=O)/C=C(\C)C(C)(C)OC(C)=O)[C@@H]13)C[C@@H](C(C)=O)[C@](C)(CC(=O)O)[C@H]4[C@@H](O)[C@@H]2O
TE-671 [5]
  Activity: inactive
A549 [6]
  Activity: inactive
P388 [7]
  Activity: inactive
HCT-8 [8]
  Activity: inactive
KB [9]
  Activity: inactive

## COC(=O)[C@@]12OC[C@]34[C@H](CC(=O)[C@H](OC(=O)/C=C(\C)C(C)(C)O)[C@@H]13)C[C@@H](C(C)=O)[C@](C)(CC(=O)O)[C@H]4[C@@H](O)[C@@H]2O [BRUCEANIC ACID D]
A549 [2]
  EC50: 10 µg/mL (≈ 17.6 µM)
P388 [10]
  EC50: 0.77 µg/mL (≈ 1.36 µM)
HCT-8 [4]
  EC50: 10 µg/mL (≈ 17.6 µM)
